From patent US4704384A, “Aziridinyl quinone antitumor agents” (priority 1981, dated 1987)
Values joined by “and” are separate entries in the source; they are usually repeats but may differ in a detail not shown here. Equal entries are not always repeated. Where two headings read alike, the source gives them in different places.

Key:
lymphoid leukemia L1210 [1] = settings: for OD / ILS: Table VIII
Text: ^b Ip tumor implantation, ip QD19 treatment schedule.
^e ILS = [(treated survival + control survival) × 100%] - 100%
The L1210, P388 and B16 test systems described in Table II utilize intraperitoneal (IP) tumor implantation and IP drug treatment while the Lewis lung system employs subcutaneous tumor implantation and IP treatment. All three CNS tumor models (Table III) use intracerebral (IC) tumor implantation and IP treatment.
Aqueous saline solution (0.9%) was used as the drug vehicle. Normally, five doses were employed per experiment with the top dose chosen to produce toxicity. The lower doses were 50% of each preceeding dose.
Consistent with NCI antitumor test protocols, intraperitoneal (IP) administration of the drug was employed with all five tumor systems investigated. Tumor implantation was IP in the systems designated IP leukemia L1210 and P388 as well as B16 melanoma. Intracerebral (IC) tumor implantation was utilized in the IC L1210 and ependymoblastoma tumor systems.

B16 melanocarcinoma = format: in vivo, murine; settings: for OD: QD1-9, Table IX; for ILS: QD1-9, at OD, Table IX
lymphoid leukemia L1210 [2] = format: in vivo, murine
Text: (§1) A third IC tumor model, the ependymoblastoma system, was also studied. This system requires intracerebral implantation of a solid tumor fragment while the IC L1210 and IC P388 systems utilize IC inoculated ascites tumor fluid. All three use IP drug treatment however. […] Cures (survivors from the group of six mice on the last day of the experiment) are indicated.

ependymoblastoma = format: in vivo, murine; settings: for OD: QD1-5, Table X
Text: ^c Ic tumor implantation, ip QD15 treatment schedule.
as §1

[3] = tested on: lymphocytic leukemia P388; format: in vivo, murine

Compound: CCSC1=C(N2CC2)C(=O)C(SCC)=C(N2CC2)C1=O [Compound 5]
- activity in IP L1210 (lymphoid leukemia L1210 [1]): not reproducible
- % ILS (lymphoid leukemia L1210 [1]; Q4D schedule): 30%

Compound: CCCSC1=C(N2CC2)C(=O)C(SCCC)=C(N2CC2)C1=O [Compound 6]
- activity in IP L1210 (lymphoid leukemia L1210 [1]): inactive

Compound: CCOC(=O)NC1=C(N2CC2C)C(=O)C(NC(=O)OCC)=C(N2CC2C)C1=O (stereo not drawn) [Compound 10]
- activity in IP L1210 (lymphoid leukemia L1210 [1]): abolished activity

Compound: CCOC(=O)NC1=C(N2CC2(C)C)C(=O)C(NC(=O)OCC)=C(N2CC2(C)C)C1=O [Compound 11]
- activity in IP L1210 (lymphoid leukemia L1210 [1]): abolished activity

Compound: CCOC(=O)NC1=C(NCCCl)C(=O)C(NC(=O)OCC)=C(NCCCl)C1=O [Compound 12]
- activity in IP L1210 (lymphoid leukemia L1210 [1]): activity was abolished

Compound: CC(=O)NC1=C(N2CC2(C)C)C(=O)C(NC(C)=O)=C(N2CC2(C)C)C1=O [Compound 21]
- activity in IP L1210 (lymphoid leukemia L1210 [1]): abolished activity

Compound: CNC1=C(N2CC2C)C(=O)C(NC)=C(N2CC2C)C1=O (stereo not drawn) [Compound 26]
- activity in B16 melanoma (B16 melanocarcinoma): reproducibly active
- OD (B16 melanocarcinoma): 5.0 mg/kg/injection
- ILS (B16 melanocarcinoma): 70% and 48%
- OD (lymphoid leukemia L1210 [1]; Day 1 only (1 injection)): 5.0 mg/kg/injection and 10.0 mg/kg/injection
- ILS (lymphoid leukemia L1210 [1]; Day 1 only, at OD): 42% and 39%
- OD (lymphoid leukemia L1210 [1]; Q4D (day 1,5,9)): 12.5 mg/kg/injection
- ILS (lymphoid leukemia L1210 [1]; Q4D, at OD): 93% and 52%
- OD (lymphoid leukemia L1210 [1]; QD1-9 (9 injections)): 5.0 mg/kg/injection
- ILS (lymphoid leukemia L1210 [1]; QD1-9, at OD): 69% and 37%
- OD (lymphoid leukemia L1210 [2]; QD1-9, Table X): 5.0 mg/kg/injection and 10.0 mg/kg/injection
- ILS (lymphoid leukemia L1210 [2]; QD1-9, at OD, Table X): 39% and 25%
- activity in ependymoblastoma (ependymoblastoma): highly active
- OD (ependymoblastoma): 10.0 mg/kg/injection and 5.0 mg/kg/injection
- animals alive per 6 (ependymoblastoma; QD1-5, day 60, at OD, Table X): 1
- survivors, EM (ependymoblastoma; Table XI, parentheses, per 6): 1

Compound: O=C1C(F)=C(N2CC2)C(=O)C(N2CCOCC2)=C1N1CC1 [Compound 31, 2,5-DIAZIRIDINYL-3-FLUORO-5-MORPHOLINO-1,4-BENZOQUINONE]
- OD (B16 melanocarcinoma): 0.7 mg/kg/injection
- ILS (B16 melanocarcinoma): 18% and 9%
- OD (lymphoid leukemia L1210 [1]; Q4D (day 1,5,9)): 6.2 mg/kg/injection and 3.1 mg/kg/injection
- activity in IP P388 [3]: active against leukemia P388
- OD ([3]; QD1-9, Table IX): 3.0 mg/kg/injection and 6.0 mg/kg/injection
- ILS ([3]; QD1-9, at OD, Table IX): 57% and 54%
- OD (ependymoblastoma): 0.8 mg/kg/injection and 1.5 mg/kg/injection
- ILS (ependymoblastoma; QD1-5, at OD, Table X): 49% and 40%
